The results in this text go back to patent US7781591B2, “Substituted 3-cyanopyridines as protein kinase inhibitors” (Wyeth LLC, priority 2006, dated 2010).

In this test the target is T1, human PKCθ full length enzyme (Homo sapiens, UniProt Q04759).
T1 construct: human PKCθ full length enzyme (Panvera Cat# P2996); purchased Panvera P2996
T1 sequence (Q04759 whole entry): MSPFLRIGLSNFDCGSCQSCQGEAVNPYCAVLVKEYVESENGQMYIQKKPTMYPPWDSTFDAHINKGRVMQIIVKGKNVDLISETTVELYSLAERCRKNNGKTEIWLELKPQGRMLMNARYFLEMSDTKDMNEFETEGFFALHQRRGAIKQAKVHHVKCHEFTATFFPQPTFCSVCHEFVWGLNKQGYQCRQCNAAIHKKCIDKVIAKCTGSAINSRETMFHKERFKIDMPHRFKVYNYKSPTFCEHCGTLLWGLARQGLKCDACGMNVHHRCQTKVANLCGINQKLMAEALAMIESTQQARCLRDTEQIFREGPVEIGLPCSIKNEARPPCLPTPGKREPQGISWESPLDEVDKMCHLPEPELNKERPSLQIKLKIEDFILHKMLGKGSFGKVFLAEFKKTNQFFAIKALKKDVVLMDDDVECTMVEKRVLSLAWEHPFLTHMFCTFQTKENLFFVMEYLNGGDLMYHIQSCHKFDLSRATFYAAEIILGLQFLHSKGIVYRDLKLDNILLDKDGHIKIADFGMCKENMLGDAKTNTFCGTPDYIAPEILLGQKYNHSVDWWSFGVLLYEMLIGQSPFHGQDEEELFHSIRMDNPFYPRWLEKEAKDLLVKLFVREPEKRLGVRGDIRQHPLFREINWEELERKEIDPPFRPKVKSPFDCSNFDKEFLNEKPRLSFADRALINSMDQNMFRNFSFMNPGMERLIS
Nature of the test: PKCθ IMAP assay (fluorescence polarization). It is filed as biochemical. As to conditions: human PKCθ full length enzyme, IMAP; average value; read-out: IC50 PKCθ IMAP. The protocol:
The reaction buffer was prepared by diluting the 5× stock reaction buffer and adding DTT to obtain a concentration of 3.0 mM. […] The final concentration of compound was 2× and 10% DMSO. DMSO was added to the rest of the master mix to increase the concentration to 10%. 10 μl of the master mix containing 10% DMSO was added to the rest of the wells on the plate except the 2nd column. 20 μl was transferred from the first column to the 2nd column. The compounds were serially diluted in 2:1 ratio starting from the 2nd column. A 2× ([…]) PKCθ solution was made in the reaction buffer. 10 μl of the PKCθ solution was added to every well to achieve these final concentrations: PKCθ—1 nM; ATP—6 μM; peptide—100 nM; DMSO—5%. Samples were incubated for 25 minutes at room temperature. The binding reagent was prepared by diluting the beads in 1× binding buffer to 800:1. 50 μl of the binding reagent was added to every well and incubated for 20 minutes. FP was measured using Envision2100 (PerkinElmer Life Sciences). Wells with no ATPs and wells with no enzymes were used as controls.
The term IC50 denotes the concentration that inhibits the measured activity by half. For the molecule `COc1ccc(CN2CCN(C)CC2)cc1-c1cncc(C#N)c1Nc1ccc2[nH]ccc2c1C` [Compound 552, 5-{2-methoxy-5-[(4-methylpiperazin-1-yl)methyl]phenyl}-4-[(4-methyl-1H-indol-5-yl)amino]nicotinonitrile], the IC50 worked out at 84 nM.

With `N#Cc1cncc(-c2cccnc2)c1Nc1ccc2[nH]ccc2c1` [Compound 259, 4-(1H-indol-5-ylamino)-3,3′-bipyridine-5-carbonitrile], the 50% inhibitory concentration (IC50) came to 1370 nM.

In the case of `N#Cc1cncc(-c2cccc(C(N)=O)c2)c1Nc1cccc2[nH]ccc12` [Compound 314, 3-[5-cyano-4-(1H-indol-4-ylamino)pyridin-3-yl]benzamide], the IC50 turned out to be 100 nM.

`Cc1c(Nc2c(C#N)cncc2-c2ccc3cc[nH]c3c2)ccc2[nH]ccc12` [Compound 588, 5-(1H-indol-6-yl)-4-[(4-methyl-1H-indol-5-yl)amino]nicotinonitrile]: the IC50 came out at 57 nM.

Turning to `Cc1c(Nc2c(C#N)cncc2-c2cc3cc(CN4CCCCC4)ccc3s2)ccc2[nH]ccc12` [Compound 228, 4-[(4-methyl-1H-indol-5-yl)amino]-5-[5-(piperidin-1-ylmethyl)-1-benzothien-2-yl]nicotinonitrile], the concentration for half-maximal inhibition (IC50) was found to be 2 nM.

On to `COc1ccc(-c2cncc(C#N)c2Nc2ccc3[nH]ccc3c2)cc1OCCN(C)C` [Compound 236, 5-{3-[2-(dimethylamino)ethoxy]-4-methoxyphenyl}-4-(1H-indol-5-ylamino)nicotinonitrile], for which the IC50 stood at 200 nM.

As for `Cc1c(Nc2c(C#N)cncc2-c2cc3cc(CN4CCC(CO)CC4)ccc3o2)ccc2[nH]ccc12` [Compound 392, 5-(5-{[4-(hydroxymethyl)piperidin-1-yl]methyl}-1-benzofuran-2-yl)-4-[(4-methyl-1H-indol-5-yl)amino]nicotinonitrile], the IC50 turned out to be 5 nM.

`N#Cc1cncc(-c2ccc3c(c2)OCCO3)c1Nc1ccc2[nH]ccc2c1` [Compound 264, 5-(2,3-dihydro-1,4-benzodioxin-6-yl)-4-(1H-indol-5-ylamino)nicotinonitrile]: the IC50 was 60 nM.

On to `COc1ccc(-c2cncc(C#N)c2Nc2c(C)ccc3[nH]ccc23)cc1OC` [Compound 336, 5-(3,4-dimethoxyphenyl)-4-[(5-methyl-1H-indol-4-yl)amino]nicotinonitrile], for which the concentration for half-maximal inhibition (IC50) amounted to 200 nM.

On to `CNC(=O)c1ccc(-c2cncc(C#N)c2Nc2ccc3[nH]ccc3c2C)cc1` [Compound 580, 4-{5-cyano-4-[(4-methyl-1H-indol-5-yl)amino]pyridin-3-yl}-N-methylbenzamide], for which the 50% inhibitory concentration (IC50) was found to be 16 nM.

As for `COc1ccc(-c2cncc(C#N)c2N[C@H]2CC[C@H](N)CC2)cc1OC` [Compound 524, 4-[(trans-4-aminocyclohexyl)amino]-5-(3,4-dimethoxyphenyl)nicotinonitrile], the IC50 was 4100 nM.

`N#Cc1cncc(-c2cncnc2)c1Nc1ccc2[nH]ccc2c1` [Compound 265, 4-(1H-indol-5-ylamino)-5-pyrimidin-5-ylnicotinonitrile]: the concentration for half-maximal inhibition (IC50) amounted to 3860 nM.

Consider `N#Cc1cncc(-c2cc3cc(CNC4CC4)ccc3s2)c1Nc1cccc2[nH]ccc12` [Compound 278, 5-{5-[(cyclopropylamino)methyl]-1-benzothien-2-yl}-4-(1H-indol-4-ylamino)nicotinonitrile], for which the IC50 came to 2 nM.

On to “4-(1H-indol-4-ylamino)-5-(4-{2-[(3-phenylpropyl)amino]ethoxy}phenyl)nicotinonitrile [Compound 347]”, for which the IC50 is 4 nM.

Consider `CS(=O)(=O)Nc1ccc(-c2cncc(C#N)c2Nc2cccc3[nH]ccc23)cc1` [Compound 317, N-{4-[5-cyano-4-(1H-indol-4-ylamino)pyridin-3-yl]phenyl}methanesulfonamide], for which the IC50 was 20 nM.

As to `Cc1c(Nc2c(C#N)cncc2-c2cc3cc(CN4CCOCC4)ccc3o2)ccc2[nH]ccc12` [Compound 388, 4-[(4-methyl-1H-indol-5-yl)amino]-5-[5-(morpholin-4-ylmethyl)-1-benzofuran-2-yl]nicotinonitrile], the IC50 was determined as 13 nM.

`N#Cc1cncc(-c2ccc(OCCCl)cc2)c1Nc1cccc2[nH]ccc12` [Compound 332, 5-[4-(2-chloroethoxy)phenyl]-4-(1H-indol-4-ylamino)nicotinonitrile]: the IC50 is 8 nM.

On to `CCCCNCc1ccc2sc(-c3cncc(C#N)c3Nc3cccc4[nH]ccc34)cc2c1` [Compound 273, 5-{5-[(butylamino)methyl]-1-benzothien-2-yl}-4-(1H-indol-4-ylamino)nicotinonitrile], for which the IC50 was found to be 2 nM.

As for `N#Cc1cncc(-c2cc3cc(CN4CCCCC4)ccc3s2)c1Nc1cccc2[nH]ccc12` [Compound 283, 4-(1H-indol-4-ylamino)-5-[5-(piperidin-1-ylmethyl)-1-benzothien-2-yl]nicotinonitrile], the concentration for half-maximal inhibition (IC50) was found to be 2 nM.

For the molecule `Cc1c(Nc2c(C#N)cncc2-c2ccc(CN3CCCC3)cc2)ccc2[nH]ccc12` [Compound 450, 4-[(4-methyl-1H-indol-5-yl)amino]-5-[4-(pyrrolidin-1-ylmethyl)phenyl]nicotinonitrile], the IC50 stood at 16 nM.

In the case of `Cc1c(Nc2c(C#N)cncc2-c2ccc(OCCN3CCC(c4ccccc4)CC3)cc2)ccc2[nH]ccc12` [Compound 435, 4-[(4-methyl-1H-indol-5-yl)amino]-5-{4-[2-(4-phenylpiperidin-1-yl)ethoxy]phenyl}nicotinonitrile], the half-inhibitory concentration (IC50) worked out at 49 nM.

For `COc1ccc(-c2cncc(C#N)c2Nc2ccc3[nH]ccc3c2)cc1-c1cccc(Cl)c1` [Compound 191, 5-(3′-chloro-6-methoxybiphenyl-3-yl)-4-(1H-indol-5-ylamino)nicotinonitrile], the half-maximal inhibitory concentration (IC50) turned out to be 320 nM.

For `Cc1cc2[nH]ccc2cc1Nc1c(C#N)cncc1-c1cc2ccccc2o1` [Compound 413, 5-(1-benzofuran-2-yl)-4-[(6-methyl-1H-indol-5-yl)amino]nicotinonitrile], the IC50 amounted to 55 nM.

Turning to `Cc1c(Nc2c(C#N)cncc2-c2ccc(CN3CCN(C4CCCC4)CC3)o2)ccc2[nH]ccc12` [Compound 486, 5-{5-[(4-cyclopentylpiperazin-1-yl)methyl]-2-furyl}-4-[(4-methyl-1H-indol-5-yl)amino]nicotinonitrile], the IC50 came out at 4 nM.

With `Cc1ccc(S(=O)(=O)n2cc(-c3cncc(C#N)c3Nc3cccc4[nH]ccc34)c3ccccc32)cc1` [Compound 320, 4-(1H-indol-4-ylamino)-5-{1-[(4-methylphenyl)sulfonyl]-1H-indol-3-yl}nicotinonitrile], the IC50 is 30 nM.

For `COc1ccc(-c2cncc(C#N)c2Nc2cccc3[nH]ccc23)cc1OCCN1CCCCC1` [Compound 248, 4-(1H-indol-4-ylamino)-5-[4-methoxy-3-(2-piperidin-1-ylethoxy)phenyl]nicotinonitrile], the IC50 was determined as 50 nM.

`COc1ccc(-c2cncc(C#N)c2NCC2CCN(C)CC2)cc1OC` [Compound 448, 5-(3,4-dimethoxyphenyl)-4-{[(1-methylpiperidin-4-yl)methyl]amino}nicotinonitrile]: the half-inhibitory concentration (IC50) was 14100 nM.

As for `Cc1c(Nc2c(C#N)cncc2-c2cccc(Br)c2)ccc2[nH]ccc12` [Compound 298, 5-(3-bromophenyl)-4-[(4-methyl-1H-indol-5-yl)amino]nicotinonitrile], the IC50 stood at 4 nM.

`COc1ccc(-c2cncc(C#N)c2Nc2cccc3[nH]ccc23)cc1OCCNCCc1ccccc1` [Compound 353, 4-(1H-indol-4-ylamino)-5-(4-methoxy-3-{2-[(2-phenylethyl)amino]ethoxy}phenyl)nicotinonitrile]: the concentration for half-maximal inhibition (IC50) came to 1 nM.

Take `COc1ccc(-c2cncc(C#N)c2NCCCN2CCN(C)CC2)cc1OC` [Compound 440, 5-(3,4-dimethoxyphenyl)-4-{[3-(4-methylpiperazin-1-yl)propyl]amino}nicotinonitrile]: the IC50 came to 14300 nM.

For the molecule `COc1ccc(-c2cncc(C#N)c2N(C)c2ccc3[nH]ccc3c2)cc1OC` [Compound 219, 5-(3,4-dimethoxyphenyl)-4-[1H-indol-5-yl(methyl)amino]nicotinonitrile], the IC50 came out at 270 nM.

For the molecule `Cc1c(Nc2c(C#N)cncc2-c2cc3ccccc3s2)ccc2[nH]ccc12` [Compound 514, 5-(1-benzothien-2-yl)-4-[(4-methyl-1H-indol-5-yl)amino]nicotinonitrile], the half-inhibitory concentration (IC50) was determined as 23 nM.

For the molecule `COc1ccc(-c2cncc(C#N)c2Nc2ccc3[nH]ccc3c2)cc1OCCNCCc1cccnc1` [Compound 252, 4-(1H-indol-5-ylamino)-5-(4-methoxy-3-{2-[(2-pyridin-3-ylethyl)amino]ethoxy}phenyl)nicotinonitrile], the IC50 amounted to 30 nM.

With `Cc1c(Nc2c(C#N)cncc2-c2ccc(CN3CCN(C)CC3)s2)ccc2[nH]ccc12` [Compound 464, 4-[(4-methyl-1H-indol-5-yl)amino]-5-{5-[(4-methylpiperazin-1-yl)methyl]-2-thienyl}nicotinonitrile], the concentration for half-maximal inhibition (IC50) turned out to be 6 nM.

Consider `Cc1c(Nc2c(C#N)cncc2-c2cncnc2)ccc2[nH]ccc12` [Compound 509, 4-[(4-methyl-1H-indol-5-yl)amino]-5-pyrimidin-5-ylnicotinonitrile], for which the half-maximal inhibitory concentration (IC50) amounted to 261 nM.

Regarding `C#CCNCc1ccc2sc(-c3cncc(C#N)c3Nc3cccc4[nH]ccc34)cc2c1` [Compound 272, 4-(1H-indol-4-ylamino)-5-{5-[(prop-2-yn-1-ylamino)methyl]-1-benzothien-2-yl}nicotinonitrile], the IC50 was found to be 4 nM.
